These results are taken from US20150087673A1, “METHODS FOR USING AND BIOMARKERS FOR AMPK-ACTIVATING COMPOUNDS” (RIGEL PHARMACEUTICALS, INC., priority 2013, published 2015).

pEC50: −log10 of the molar value. Some results are limits rather than exact numbers.

In this experiment the test system is AMPK. The experiment can be described thus: AMPK activation assay (enzyme-linked immunosorbent assay). The class given is cell-based. An outline of the steps:
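Activator screen performed per well-known kit methods.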
As usually defined, the pEC50 is −log10 of the EC50, conventionally taken in molar units. Read a high pEC50 as a small EC50. For `N#Cc1ccc(OC2CCN(C(=O)c3ccc(C(=O)NC4CCNCC4)cn3)CC2)cc1` [Compound 335, 6-(4-(4-cyanophenoxy)piperidine-1-carbonyl)-N-(piperidin-4-yl) nicotinamide], the pEC50 was below 5.00.
`N#Cc1ccc(CN2CCC(NC(=O)c3ccc(C(=O)N4CCC(S(=O)(=O)c5ccc(F)cc5)CC4)cn3)CC2)cc1` [Compound 262, N-(1-(4-cyanobenzyl)piperidin-4-yl)-5-(4-(4-fluorophenylsulfonyl)piperidine-1-carbonyl)picolinamide] showed a pEC50 above 6.30.
Under `N#Cc1cccc(-c2ccc(NC(=O)c3ccc(C(=O)N4CCN(Cc5ccc(F)cc5)CC4)cn3)cc2)c1` [Compound 32, N-(4-(3-cyanophenyl)phenyl)-5-(4-(4-fluorobenzyl)piperazine-1-carbonyl)picolinamide] stands 6.00 to 6.30; under `CN(C)C(=O)c1ccc(OC2CCN(C(=O)c3ccc(C(=O)Nc4ccc(Oc5ccc(F)cc5)nc4)nc3)CC2)cc1` [Compound 360, 5-(4-(4-(dimethylcarbamoyl)phenoxy)piperidine-1-carbonyl)-N-(6-(4-fluorophenoxy)pyridin-3-yl)picolinamide], above 6.30; under `O=C(c1ccc(N2CCC(Oc3ccc(C(F)(F)F)cc3)CC2)nc1)N1CCN(Cc2ccc(F)cc2)CC1` [Compound 187, (4-(4-fluorobenzyl)piperazin-1-yl)(6-(4-(4-(trifluoromethyl)phenoxy)piperidin-1-yl)pyridin-3-yl)methanone], 5.30 to 6.00.
`N#Cc1ccc(CN2CCC(NC(=O)c3ccc(C(=O)N4CCN(C(=O)C5CCCCC5)CC4)cn3)CC2)cc1` [Compound 89, N-(1-(4-cyanobenzyl)piperidin-4-yl)-5-(4-(cyclohexanecarbonyl)piperazine-1-carbonyl)picolinamide]: the pEC50 is 5.30 to 6.00.
Under `N#Cc1cccc(Oc2ccc(NC(=O)c3ccc(C(=O)N4CCN(Cc5ccc(F)cc5)CC4)cn3)cn2)c1` [Compound 64, 5-(4-(4-fluorobenzyl)piperazine-1-carbonyl)-(6-(3-cyanophenoxy)pyridin-3-yl)picolinamide] stands above 6.30; under `O=C(Nc1ccc(-c2ccccc2)cc1)c1ccc(C(=O)N2CCN(Cc3ccc(F)cc3)CC2)cn1` [Compound 11], above 6.30.
`N#Cc1ccc(Oc2ccc(NC(=O)c3ccc(C(=O)N4CCC(Oc5ccc(S(F)(F)(F)(F)F)cc5)CC4)nc3)cn2)cc1` [Compound 497, N-(6-(4-cyanophenoxy)pyridin-3-yl)-6-(4-(4-(pentafluorosulfanyl)phenoxy)piperidine-1-carbonyl)nicotinamide] had a pEC50 above 6.30.
Under `O=C(NC1CCN(Cc2ccc(OC(F)(F)F)cc2)CC1)c1ccc(C(=O)N2CCC(Oc3ccc(C(=O)C4CC4)cc3)CC2)nc1` [Compound 455, 6-(4-(4-(cyclopropanecarbonyl)phenoxy)piperidine-1-carbonyl)-N-(1-(4-(trifluoromethoxy)benzyl)piperidin-4-yl)nicotinamide] stands above 6.30; under `CS(=O)(=O)c1ccc(OC2CCN(C(=O)c3ccc(C(=O)Nc4ccc(Oc5ccc(F)cc5)nc4)cn3)CC2)cc1` [Compound 235, N-(6-(4-fluorophenoxy)pyridin-3-yl)-6-(4-(4-(methylsulfonyl)phenoxy)piperidine-1-carbonyl)nicotinamide], above 6.30.
Under `CC(=O)Nc1ccc(OC2CCN(C(=O)c3ccc(C(=O)NC4CCN(Cc5ccc(C#N)cc5)CC4)cn3)CC2)cc1` [Compound 366, 6-(4-(4-acetamidophenoxy)piperidine-1-carbonyl)-N-(1-(4-cyanobenzyl)piperidin-4-yl)nicotinamide] stands above 6.30; under `O=C(NC1CCN(Cc2ccccc2)CC1)c1ccc(C(=O)N2CCN(Cc3ccccc3)CC2)nc1` [Compound 74, 6-(4-benzylpiperazine-1-carbonyl)-N-(1-benzylpiperidin-4-yl)nicotinamide], above 6.30.
`N#Cc1ccc(OC2CCN(C(=O)c3ccc(C(=O)NC4CCN(Cc5ccc(F)cc5)CC4)cn3)CC2)cc1` [Compound 320, 6-(4-(4-cyanophenoxy)piperidine-1-carbonyl)-N-(1-(4-fluorobenzyl)piperidin-4-yl)nicotinamide] gave a pEC50 above 6.30.
As to `CS(=O)(=O)c1ccc(C(=O)C2CCN(C(=O)c3ccc(C(=O)N[C@@H]4CCN(Cc5ccc(OC(F)(F)F)cc5)C[C@H]4F)nc3)CC2)cc1` (relative stereo) [Compound 253, N-((trans)-3-fluoro-1-(4-(trifluoromethoxy)benzyl)piperidin-4-yl)-5-(4-(4-(methylsulfonyl)benzoyl)piperidine-1-carbonyl)picolinamide], the pEC50 was 6.00 to 6.30.
`O=C(Nc1ccc(Oc2ccc(F)cc2)nc1)c1ccc(C(=O)N2CCC(Oc3ccc(NS(=O)(=O)C4CC4)cc3)CC2)nc1` [Compound 449, 6-(4-(4-(cyclopropanesulfonamido)phenoxy)piperidine-1-carbonyl)-N-(6-(4-fluorophenoxy)pyridin-3-yl)nicotinamide] showed a pEC50 of 5.30 to 6.00.
Compound `O=C(Nc1ccc(Oc2ccc(F)cc2)nc1)c1ccc(C(=O)N2CCC(C(=O)c3ccc(F)cc3)CC2)cn1` [Compound 272, 5-(4-(4-fluorobenzoyl)piperidine-1-carbonyl)-N-(6-(4-fluorophenoxy)pyridin-3-yl)picolinamide] gave a pEC50 above 6.30.
`N#Cc1ccc(CN2CCC(NC(=O)c3ccc(C(=O)N4CCC(Oc5ccc(C#N)cc5)CC4)nn3)CC2)cc1` [Compound 388, N-(1-(4-cyanobenzyl)piperidin-4-yl)-6-(4-(4-cyanophenoxy)piperidine-1-carbonyl)pyridazine-3-carboxamide]: the pEC50 is above 6.30.
In turn, `O=C(NC1CCN(Cc2ccccc2)CC1)c1ccc(Nc2cccc(-c3ccccc3)c2)cn1` [Compound 114, N-(1-benzylpiperidin-4-yl)-5-(biphenyl-3-ylamino)picolinamide] had a pEC50 of 5.30 to 6.00.
Under `N#Cc1ccc(CN2CCC(NC(=O)c3ccc(NC4CCN(c5ccc(F)cc5)CC4)cn3)CC2)cc1` [Compound 276, N-(1-(4-cyanobenzyl)piperidin-4-yl)-5-(1-(4-fluorophenyl)piperidin-4-ylamino)picolinamide] stands above 6.30.
Under `O=C(Nc1ccc(Oc2ccc(F)cc2)nc1)c1ccc(C(=O)N2CCC(C(=O)c3ccc(N4CCCC4)cc3)CC2)nc1` [Compound 382, N-(6-(4-fluorophenoxy)pyridin-3-yl)-6-(4-(4-(pyrrolidin-1-yl)benzoyl)piperidine-1-carbonyl)nicotinamide] stands above 6.30; under `O=C(Nc1ccc(N2CCOCC2)cc1)c1ccc(C(=O)N2CCN(Cc3ccc(F)cc3)CC2)cn1` [Compound 40, 5-(4-(4-fluorobenzyl)piperazine-1-carbonyl)-N-(4-morpholinophenyl)picolinamide], 5.30 to 6.00; under `N#Cc1ccc(CN2CCC(NC(=O)c3ccc(NC4CCN(c5ccccc5)CC4)cn3)CC2)cc1` [Compound 126, N-(1-(4-cyanobenzyl)piperidin-4-yl)-5-(1-phenylpiperidin-4-ylamino)picolinamide], above 6.30.
The compound `O=C(NC1CCN(Cc2ccc(OC(F)(F)F)cc2)CC1)c1ccc(C(=O)N2CCC(Oc3cccc(NC(=O)C4CC4)c3)CC2)nc1` [Compound 438, 6-(4-(3-(cyclopropanecarboxamido)phenoxy)piperidine-1-carbonyl)-N-(1-(4-(trifluoromethoxy)benzyl)piperidin-4-yl)nicotinamide] showed a pEC50 above 6.30.
Compound `O=C(NC1CCN(Cc2ccc(OC(F)(F)F)cc2)CC1)c1ccc(C(=O)N2CCC(C(=O)c3ccc(N4CCCC4)cc3)CC2)nc1` [Compound 440, 6-(4-(4-(pyrrolidin-1-yl)benzoyl)piperidine-1-carbonyl)-N-(1-(4-(trifluoromethoxy)benzyl)piperidin-4-yl)nicotinamide] had a pEC50 above 6.30.
`N#Cc1ccc(OC2CN(C(=O)c3ccc(C(=O)Nc4ccc(Oc5ccc(F)cc5)nc4)nc3)C2)cc1` [Compound 210, 5-(3-(4-cyanophenoxy)azetidine-1-carbonyl)-N-(6-(4-fluorophenoxy)pyridin-3-yl)picolinamide]: the pEC50 was below 5.00.
`CS(=O)(=O)c1ccc(OC2CCN(C(=O)c3ccc(C(=O)N[C@@H]4CCN(Cc5ccc(OC(F)(F)F)cc5)C[C@H]4F)nc3)CC2)cc1` (relative stereo) [Compound 255, N-((trans)-3-fluoro-1-(4-(trifluoromethoxy)benzyl)piperidin-4-yl)-5-(4-(4-(methylsulfonyl)phenoxy)piperidine-1-carbonyl)picolinamide] gave a pEC50 above 6.30.
In turn, `Cc1cc(CN2CCC(NC(=O)c3ccc(C(=O)N4CCN(Cc5ccc(F)cc5)CC4)cn3)CC2)ccc1F` [Compound 50, 5-(4-(4-fluorobenzyl)piperazine-1-carbonyl)-N-(1-(4-fluoro-3-methylbenzyl)piperidin-4-yl)picolinamide] had a pEC50 above 6.30.
As for `O=C(Nc1ccc(Oc2cccc(F)c2)cc1)c1ccc(C(=O)N2CCN(Cc3ccc(F)cc3)CC2)cn1` [Compound 55, 5-(4-(4-fluorobenzyl)piperazine-1-carbonyl)-N-(4-(3-fluorophenoxy)phenyl)picolinamide], the negative-log EC50 (pEC50) is above 6.30.
Compound `N#Cc1ccc(Oc2ccc(NC(=O)c3ccc(C(=O)N4CCN(Cc5ccc(F)cc5)CC4)cn3)cc2)cc1` [Compound 59, N-(4-(4-cyanophenoxy)phenyl)-5-(4-(4-fluorobenzyl)piperazine-1-carbonyl)picolinamide] had a pEC50 above 6.30.
`N#Cc1ccc(CN2CCC(NC(=O)c3ccc(C(=O)N4CCN(Cc5ccncc5)CC4)cn3)CC2)cc1` [Compound 103, N-(1-(4-cyanobenzyl)piperidin-4-yl)-5-(4-(pyridin-4-ylmethyl)piperazine-1-carbonyl)picolinamide] gave a pEC50 above 6.30.
`O=C(NCc1ccccc1)c1ccc(C(=O)N2CCN(Cc3ccc(F)cc3)CC2)cn1` [Compound 115, N-benzyl-5-(4-(4-fluorobenzyl)piperazine-1-carbonyl)picolinamide] showed a negative logarithm of the EC50 (pEC50) of 5.00 to 5.30.
`COc1ccc(CN2CCC(NC(=O)c3ccc(C(=O)N4CCC(Oc5ccc(NC(C)=O)cc5)CC4)nc3)CC2)cc1` [Compound 407, 6-(4-(4-acetamidophenoxy)piperidine-1-carbonyl)-N-(1-(4-methoxybenzyl)piperidin-4-yl) nicotinamide]: the negative logarithm of the EC50 (pEC50) is above 6.30.
